# Where “and” joins values, the source holds several entries; their conditions need not be identical. Equal values may be shown once. Bridge positions count the residues as written; N and C are the ends. Square brackets hold non-standard residues; d marks the D form. Peptide text beside a SMILES is read from it. * marks the point of attachment. ξ: configuration not given here. Abu(4-SO3H) = N[C@@H](CCS(=O)(=O)O)C(=O)O; PhLac = O=C(O)[C@@H](O)Cc1ccccc1; ξPhLac = O=C(O)C(O)Cc1ccccc1; Carboxymethyl = O=C(O)C*; CH2CH2COOH = O=C(O)CC*
# Biological target: Glucagon Receptor (Homo sapiens, UniProt P47871)
# Sequence (P47871 26-477): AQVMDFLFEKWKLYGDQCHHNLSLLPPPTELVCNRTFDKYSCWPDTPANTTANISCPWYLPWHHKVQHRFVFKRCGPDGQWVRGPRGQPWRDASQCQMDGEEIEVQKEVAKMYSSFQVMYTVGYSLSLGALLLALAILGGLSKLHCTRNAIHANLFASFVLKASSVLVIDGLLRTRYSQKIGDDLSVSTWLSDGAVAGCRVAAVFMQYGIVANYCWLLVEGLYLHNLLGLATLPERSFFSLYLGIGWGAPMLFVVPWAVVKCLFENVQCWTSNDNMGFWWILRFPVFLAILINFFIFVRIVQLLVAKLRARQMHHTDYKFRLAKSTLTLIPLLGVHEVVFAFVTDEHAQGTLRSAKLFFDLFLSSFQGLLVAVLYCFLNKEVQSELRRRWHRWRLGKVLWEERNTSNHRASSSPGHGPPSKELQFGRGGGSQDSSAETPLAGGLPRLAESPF
# Assay: cAMP inhibition: antagonism of glucagon-induced cAMP at glucagon receptor
# Assay type: cell-based
# Set-up: expressed in transfected cells; host or cells: HEK293
# Conditions: for cAMP pA2: Table 9
# [1] = Glucagon antagonism IC50 (nM, inhibit 0.2-0.8 nM glucagon), Table 18
smiles,measurement,setting,value
"CSCC[C@H](NC(=O)[C@H](CC(C)C)NC(=O)[C@H](Cc1c[nH]c2ccccc12)NC(=O)[C@H](CCC(N)=O)NC(=O)[C@@H](NC(=O)[C@H](Cc1ccccc1)NC(=O)[C@H](CC(=O)O)NC(=O)[C@H](CCC(N)=O)NC(=O)[C@H](C)NC(=O)[C@H](CCCNC(=N)N)NC(=O)[C@H](CCCNC(=N)N)NC(=O)[C@H](CO)NC(=O)[C@H](CC(=O)O)NC(=O)[C@H](CC(C)C)NC(=O)[C@H](Cc1ccc(O)cc1)NC(=O)[C@H](CCCCN)NC(=O)[C@H](CO)NC(=O)[C@H](Cc1ccc(O)cc1)NC(=O)[C@H](CSCC(=O)O)NC(=O)[C@H](CO)NC(=O)[C@@H](NC(=O)[C@@H](N)Cc1ccccc1)[C@@H](C)O)C(C)C)C(=O)N[C@@H](CC(N)=O)C(=O)N[C@H](C(N)=O)[C@@H](C)O [[(CSA-1)^9]Glucagon(aa6-29)-NH2, [C^9(SCH2COOH)]Glucagon(aa6-29)-NH2] (H-FTSC(Carboxymethyl)YSKYLDSRRAQDFVQWLMNT-NH2; N-terminus assumed)",cAMP pA2,,6.68 ± 1.05
"CSCC[C@H](NC(=O)[C@H](CC(C)C)NC(=O)[C@H](Cc1c[nH]c2ccccc12)NC(=O)[C@H](CCC(N)=O)NC(=O)[C@@H](NC(=O)[C@H](Cc1ccccc1)NC(=O)[C@H](CC(=O)O)NC(=O)[C@H](CCC(N)=O)NC(=O)[C@H](C)NC(=O)[C@H](CCCNC(=N)N)NC(=O)[C@H](CCCNC(=N)N)NC(=O)[C@H](CO)NC(=O)[C@H](CC(=O)O)NC(=O)[C@H](CC(C)C)NC(=O)[C@H](Cc1ccc(O)cc1)NC(=O)[C@H](CCCCN)NC(=O)[C@H](CO)NC(=O)[C@H](Cc1ccc(O)cc1)NC(=O)[C@H](CSCCC(=O)O)NC(=O)[C@H](CO)NC(=O)[C@@H](NC(=O)[C@@H](N)Cc1ccccc1)[C@@H](C)O)C(C)C)C(=O)N[C@@H](CC(N)=O)C(=O)N[C@H](C(N)=O)[C@@H](C)O [[(CSA-2)^9]Glucagon(aa6-29)-NH2, [C^9(SCH2CH2COOH)]Glucagon(aa6-29)-NH2] (H-FTSC(CH2CH2COOH)YSKYLDSRRAQDFVQWLMNT-NH2; N-terminus assumed)",cAMP pA2,,6.64 ± 0.29
"CC[C@H](C)[C@H](NC(=O)[C@H](Cc1ccccc1)NC(=O)[C@H](CCC(=O)O)NC(=O)[C@@H]1CCCCNC(=O)CC[C@H](NC(=O)[C@H](CC(=O)O)NC(=O)[C@H](CC(C)C)NC(=O)[C@H](Cc2ccc(O)cc2)NC(=O)[C@H](CCCCN)NC(=O)[C@H](CO)NC(=O)[C@H](Cc2ccc(O)cc2)NC(=O)[C@H](CCC(=O)O)NC(=O)[C@H](CO)NC(=O)[C@@H](NC(=O)[C@H](Cc2ccccc2)NC(=O)[C@@H](NC(=O)CNC(=O)[C@H](CCC(=O)O)NC(=O)[C@H](C)N)[C@@H](C)O)[C@@H](C)O)C(=O)N[C@@H](CCC(N)=O)C(=O)N[C@@H](C)C(=O)N[C@@H](C)C(=O)N1)C(=O)N[C@@H](C)C(=O)N[C@@H](Cc1c[nH]c2ccccc12)C(=O)N[C@@H](CC(C)C)C(=O)N[C@@H](CCSC)C(=O)N[C@@H](CC(=O)O)C(=O)N[C@H](C(N)=O)[C@@H](C)O [[A2E3, E9, E16K20(Lactam), GLP(23-32)]G(2-29)] (H-AEGTFTSEYSKYLDEQAAKEFIAWLMDT-NH2; lactam 15-19; N-terminus assumed)",IC50,[1],423 nM
same,"character of antagonism (partial antagonist, wrapped cell)",Table 18,partial
"CSCC[C@H](NC(=O)[C@H](CC(C)C)NC(=O)[C@H](Cc1c[nH]c2ccccc12)NC(=O)[C@H](CCC(N)=O)NC(=O)[C@@H](NC(=O)[C@H](Cc1ccccc1)NC(=O)[C@H](CC(=O)O)NC(=O)[C@@H]1CCCCNC(=O)CC[C@H](NC(=O)[C@H](CC(=O)O)NC(=O)[C@H](CC(C)C)NC(=O)[C@H](Cc2ccc(O)cc2)NC(=O)[C@H](CCCCN)NC(=O)[C@H](CO)NC(=O)[C@H](Cc2ccc(O)cc2)NC(=O)[C@H](CCC(=O)O)NC(=O)[C@H](CO)NC(=O)[C@@H](NC(=O)[C@H](Cc2ccccc2)NC(=O)[C@@H](NC(=O)CNC(=O)[C@H](CCC(=O)O)NC(=O)[C@H](C)N)[C@@H](C)O)[C@@H](C)O)C(=O)N[C@@H](CCCNC(=N)N)C(=O)N[C@@H](CCCNC(=N)N)C(=O)N[C@@H](C)C(=O)N1)C(C)C)C(=O)N[C@@H](CC(=O)O)C(=O)N[C@H](C(N)=O)[C@@H](C)O [[A2E3, E16K20(Lactam),D28]G(2 ~ 29)]",IC50,[1],63.2 ± 2.3 nM
"CSCC[C@H](NC(=O)[C@H](CC(C)C)NC(=O)[C@H](Cc1c[nH]c2ccccc12)NC(=O)[C@H](CCC(N)=O)NC(=O)[C@@H](NC(=O)[C@H](Cc1ccccc1)NC(=O)[C@H](CC(=O)O)NC(=O)[C@@H]1CCCCNC(=O)CC[C@H](NC(=O)[C@H](CC(=O)O)NC(=O)[C@H](CC(C)C)NC(=O)[C@H](Cc2ccc(O)cc2)NC(=O)[C@H](CCCCN)NC(=O)[C@H](CO)NC(=O)[C@H](Cc2ccc(O)cc2)NC(=O)[C@H](CCC(=O)O)NC(=O)[C@H](CO)NC(=O)[C@@H](NC(=O)[C@@H](O)Cc2ccccc2)[C@@H](C)O)C(=O)N[C@@H](CCCNC(=N)N)C(=O)N[C@@H](CCCNC(=N)N)C(=O)N[C@@H](C)C(=O)N1)C(C)C)C(=O)N[C@@H](CC(N)=O)C(=O)N[C@H](C(=O)NCC(=O)N1CCC[C@H]1C(=O)N[C@@H](CO)C(=O)N[C@@H](CO)C(=O)NCC(=O)N[C@@H](C)C(=O)N1CCC[C@H]1C(=O)N1CCC[C@H]1C(=O)N1CCC[C@H]1C(=O)N[C@@H](CO)C(N)=O)[C@@H](C)O [[PLA6, E9, E16K20(Lactam)]]",IC50,"Glucagon antagonism IC50 (nM, inhibit 0.2-0.8 nM glucagon), Table 16, combined results of three assays",20.5 ± 2.5 nM
"CC[C@H](C)[C@H](NC(=O)[C@H](Cc1ccccc1)NC(=O)[C@H](CCC(=O)O)NC(=O)[C@@H]1CCCCNC(=O)CC[C@H](NC(=O)[C@H](CC(=O)O)NC(=O)[C@H](CC(C)C)NC(=O)[C@H](Cc2ccc(O)cc2)NC(=O)[C@H](CCCCN)NC(=O)[C@H](CO)NC(=O)[C@H](Cc2ccc(O)cc2)NC(=O)[C@H](CC(=O)O)NC(=O)[C@H](CO)NC(=O)[C@@H](NC(=O)C(O)Cc2ccccc2)[C@@H](C)O)C(=O)N[C@@H](CCC(N)=O)C(=O)N[C@@H](C)C(=O)N[C@@H](C)C(=O)N1)C(=O)N[C@@H](C)C(=O)N[C@@H](Cc1c[nH]c2ccccc12)C(=O)N[C@@H](CC(C)C)C(=O)N[C@@H](CCSC)C(=O)N[C@@H](CC(=O)O)C(=O)N[C@H](C(N)=O)[C@@H](C)O (stereo partly shown) [[PLA6, E16K20(lactam), GLP(23-32)]G(6-29)] (H-[ξPhLac]TSDYSKYLDEQAAKEFIAWLMDT-NH2; lactam 11-15)",IC50,[1],11.7 nM and 73.5 nM
"CSCC[C@H](NC(=O)[C@H](CC(C)C)NC(=O)[C@H](Cc1c[nH]c2ccccc12)NC(=O)[C@H](CCC(N)=O)NC(=O)[C@@H](NC(=O)[C@H](Cc1ccccc1)NC(=O)[C@H](CC(=O)O)NC(=O)[C@H](CCC(N)=O)NC(=O)[C@H](C)NC(=O)[C@H](CCCNC(=N)N)NC(=O)[C@H](CCCNC(=N)N)NC(=O)[C@H](CO)NC(=O)[C@H](CC(=O)O)NC(=O)[C@H](CC(C)C)NC(=O)[C@H](Cc1ccc(O)cc1)NC(=O)[C@H](CCCCN)NC(=O)[C@H](CO)NC(=O)[C@H](Cc1ccc(O)cc1)NC(=O)[C@H](CCC(=O)O)NC(=O)[C@H](CO)NC(=O)[C@@H](NC(=O)[C@H](Cc1ccccc1)OC(=O)[C@@H](NC(=O)CNC(=O)[C@H](CCC(N)=O)NC(=O)[C@H](CO)NC(=O)[C@@H](N)Cc1c[nH]cn1)[C@@H](C)O)[C@@H](C)O)C(C)C)C(=O)N[C@@H](CC(N)=O)C(=O)N[C@H](C(N)=O)[C@@H](C)O [[Thr5-O-PLA6,E9]Glucagon(1-29)] (H-HSQGT[PhLac]TSEYSKYLDSRRAQDFVQWLMNT-NH2; N-terminus assumed)",IC50,"Glucagon antagonism IC50(nM, inhibit 0.5nM G), Table 25",14.2 ± 7.89 nM
"CC(C)C[C@H](NC(=O)[C@H](Cc1ccc(O)cc1)NC(=O)[C@H](CCCCN)NC(=O)[C@H](CO)NC(=O)[C@H](Cc1ccc(O)cc1)NC(=O)[C@H](CCS(=O)(=O)O)NC(=O)[C@H](CO)NC(=O)[C@@H](NC(=O)[C@H](Cc1ccccc1)NC(=O)[C@@H](NC(=O)[C@H](CC(C)C)NC(=O)[C@H](CCC(N)=O)NC(=O)[C@@H](N)CO)[C@@H](C)O)[C@@H](C)O)C(=O)N[C@@H](CC(=O)O)C(=O)N[C@@H](CO)C(=O)N[C@@H](CCCNC(=N)N)C(=O)N[C@@H](CCCNC(=N)N)C(=O)N[C@@H](C)C(=O)N[C@@H](CCC(N)=O)C(=O)N[C@@H](CC(=O)O)C(=O)N[C@@H](Cc1ccccc1)C(=O)N[C@H](C(=O)N[C@@H](CCC(N)=O)C(=O)N[C@@H](Cc1ccccc1)C(=O)N[C@@H](CC(C)C)C(=O)N[C@@H](CC(C)C)C(=O)N[C@@H](CC(N)=O)C(=O)N[C@H](C(N)=O)[C@@H](C)O)C(C)C [[desHis^1, Leu^4, hCys^9(SO3−), Phe^25, Leu^27] Glucagon-NH2] (H-SQLTFTS[Abu(4-SO3H)]YSKYLDSRRAQDFVQFLLNT-NH2; N-terminus assumed)","glucagon antagonism, in words",,some level of antagonism
"CC(C)C[C@H](NC(=O)[C@H](Cc1ccc(O)cc1)NC(=O)[C@H](CCCCN)NC(=O)[C@H](CO)NC(=O)[C@H](Cc1ccc(O)cc1)NC(=O)[C@H](CCS(=O)(=O)O)NC(=O)[C@H](CO)NC(=O)[C@@H](NC(=O)[C@@H](NC(=O)CNC(=O)[C@H](CCC(N)=O)NC(=O)[C@@H](N)CO)[C@@H](C)O)[C@@H](C)O)C(=O)N[C@@H](CC(=O)O)C(=O)N[C@@H](CO)C(=O)N[C@@H](CCCNC(=N)N)C(=O)N[C@@H](CCCNC(=N)N)C(=O)N[C@@H](C)C(=O)N[C@@H](CCC(N)=O)C(=O)N[C@@H](CC(=O)O)C(=O)N[C@@H](Cc1ccccc1)C(=O)N[C@H](C(=O)N[C@@H](CCC(N)=O)C(=O)N[C@@H](Cc1ccccc1)C(=O)N[C@@H](CC(C)C)C(=O)N[C@@H](CC(C)C)C(=O)N[C@@H](CC(N)=O)C(=O)N[C@H](C(N)=O)[C@@H](C)O)C(C)C [[desHis^1, desPhe^6, hCys^9(SO3−), Phe^25, Leu^27] Glucagon-NH2] (H-SQGTTS[Abu(4-SO3H)]YSKYLDSRRAQDFVQFLLNT-NH2; N-terminus assumed)","glucagon antagonism, in words",,some level of antagonism
